Reference: patent US11197826B2, “Oil-in-water emulsions including retinoic acid” (NOVARTIS AG, priority 2015, dated 2021)

Experiments:
[1] = test system: CCR9 on CD4+ T-cells expressing the DO-11.10 T-cell receptor; test: Adoptive T-cell transfer with fingolimod: CCR9 expression and proliferation of DO-11.10 CD4+ T-cells in draining lymph nodes; type: in vivo, mice; conditions: FACS, MF59-adjuvanted ovalbumin plus retinoic acid versus MF59 plus plain vehicle
Procedure: Reference describes experimental protocols for studying the homing of T-cells in mice who receive retinoic acid. In brief, T-cells specific for test antigens (in the present case, ovalbumin) are adoptively transferred into mice and their behaviour in response to specific treatments is studied. This general experimental procedure was used to assess the effect of MF59 and retinoic acid on CCR9 expression in T-cells, and on their in vivo migration.
Mice were injected intravenously with 2×10^6 CD4^+ T-cells which react to ovalbumin peptides (DO-11.10 cells). These cells were labelled with CFSE before being administered. At around the same time they were given either retinoic acid or a plain vehicle. The next day they received MF59-adjuvanted ovalbumin, and the next day they again received RA or plain vehicle, plus fingolimod (which blocks the egress of lymphocytes from lymph nodes). A few days later their draining lymph nodes were drained and CD4^+ T-cells expressing the DO-11.10 T-cell receptor were tested for CCR9 expression by FACS. The CFSE label was used to trace cell proliferation.

[2] = Mucosal antibody responses after MF59-adjuvanted immunisation; type: in vivo, mice
Procedure: To assess antibody responses mice were injected with 3 doses of either ovalbumin or H56 (a […] antigen) on days 0, 21, and 42, adjuvanted with MF59. The day before and after each immunization one group of mice were given retinoic acid whereas control mice received a plain vehicle instead. Serum IgG and vaginal wash IgA antibody responses were assessed at day 56. IgA-secreting cells were also measured in the bone marrow.

[3] = cited from earlier work

SMILES: CC1=C(/C=C/C(C)=C/C=C/C(C)=C/C(=O)O)C(C)(C)CCC1 [retinoic acid]
- number of CCR9-positive cells, fold higher [1]: about 5 ×
- proportion of IgA-secreting cells, fold higher, H56 ([2]; bone marrow, H56 adjuvanted with MF59, retinoic acid versus plain vehicle): around 12 ×
- proportion of IgA-secreting cells, fold higher, ovalbumin ([2]; bone marrow, ovalbumin adjuvanted with MF59, retinoic acid versus plain vehicle): about 7 ×
- antigen-specific IgA titres in vaginal washes ([2]; day 56, 3 MF59-adjuvanted doses, plain vehicle essentially zero): about 1250
- solubility in oil [3]: soluble
- solubility in water [3]: sparingly soluble
